From US20060121449A1, “Method for selection of compounds which inhibit clonal cell growth and use thereof” (priority 2002, published 2006)
Entries after “also recorded” stand apart in the source; their conditions may differ. Starred links: 1 amine or outer side, 2 acyl side, 3 side chain; linkers in the order of their positions; H or OH if unused. Positions of bridges follow the written chain, without caps; N, C: chain ends. Non-standard residues stand in square brackets, D forms with d. Residues, ends and D or L forms follow the SMILES beside them. Chains are numbered I, II in the order given. Actinocin(9to1) = Cc1c2oc3c(C)ccc(C(=O)[*:1])c3nc-2c(C(=O)[*:2])c(N)c1=O; NMeV = CN[C@H](C(=O)O)C(C)C; Sar = CNCC(=O)O

Test system: polyoma virus transformed BHK21/c13 cells, line S100T1
Assay: Collocation inhibition test: clonal growth in sparsely and densely seeded areas of a cell density gradient of S100T1 cells in soft agar (Exp 13, 17, 19-26);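 note: soft agar cultures in 24-well plates with a cell density gradient in the top layer, compounds applied from DMSO stocks, clonal growth scored in sparse versus dense areas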;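 for Clonal growth, H high density area of cell gradient, High: grades rise with clonal growth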;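 for Clonal growth, H high density area of cell gradient, Low: grades rise with clonal growth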;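 for Clonal growth, H high density area of cell gradient, Medium: grades rise with clonal growth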;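 for Clonal growth, L low density area of cell gradient, High: grades rise with clonal growth and minus or plus-minus means none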;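 for Clonal growth, L low density area of cell gradient, Low: grades rise with clonal growth and minus or plus-minus means none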;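 for Clonal growth, L low density area of cell gradient, Medium: grades rise with clonal growth and minus or plus-minus means none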
Details: for Clonal growth, H: high density area of cell gradient, High / Clonal growth, L: low density area of cell gradient, High / Clonal growth, H: high density area of cell gradient, Low / Clonal growth, L: low density area of cell gradient, Low / Clonal growth, H: high density area of cell gradient, Medium / Clonal growth, L: low density area of cell gradient, Medium: 4-OH-OPB analogues, S100T1 in soft agar; for Clonal inhibition by 4-OH-OPB analogues, summary of Exp 22-25: sparsely seeded areas while densely seeded areas of the same culture showed significant growth; for Effect on clonal growth and toxicity: 117000 S100T1 cells/well; for Clonal growth, H high density area of cell gradient, High / Clonal growth, L low density area of cell gradient, High / Clonal growth, H high density area of cell gradient, Low / Clonal growth, L low density area of cell gradient, Low / Clonal growth, H high density area of cell gradient, Medium / Clonal growth, L low density area of cell gradient, Medium / Effect on cell cloning in soft agar: preliminary results; for Clonal growth, H high density area of cell gradient, High / Clonal growth, L low density area of cell gradient, High / Clonal growth, H high density area of cell gradient, Low / Clonal growth, L low density area of cell gradient, Low / Clonal growth, H high density area of cell gradient, Medium / Clonal growth, L low density area of cell gradient, Medium: Exp 13-18, 21-26; for Effect on cell cloning in soft agar: in words; for Resulting clonal growth of treated cultures: Experiment 26, read after 24 hours
[1] = Experiment 25, H: area with high cell density, Low concentration, after 48 hours incubation
[2] = Experiment 25, H: area with high cell density, Medium concentration, after 48 hours incubation
[3] = Experiment 25, L: area with low cell density, High concentration, after 48 hours incubation
[4] = Experiment 25, L: area with low cell density, Low concentration, after 48 hours incubation
[5] = Experiment 25, L: area with low cell density, Medium concentration, after 48 hours incubation
[6] = Summary Table 3 of analogue tests (experiments 22-25), H (high cell density), Low concentration
[7] = Summary Table 3 of analogue tests (experiments 22-25), H (high cell density), Medium concentration
[8] = Summary Table 3 of analogue tests (experiments 22-25), L (low cell density), High concentration
[9] = Summary Table 3 of analogue tests (experiments 22-25), L (low cell density), Low concentration
[10] = Summary Table 3 of analogue tests (experiments 22-25), L (low cell density), Medium concentration
[11] = Experiment 25, H: area with high cell density, High concentration, after 48 hours incubation
[12] = Exp 21, 117000 cells per well, Low concentration (see figure), H: area with high cell density
[13] = Exp 21, High concentration, H: area with high cell density
[14] = Exp 21, Low concentration, L: area with low cell density
[15] = Exp 21, Medium concentration, H: area with high cell density
[16] = Exp 21, Medium concentration, L: area with low cell density
[17] = H: area with high cell density, High concentration
[18] = H: area with high cell density, Low concentration
[19] = H: area with high cell density, Medium concentration
[20] = L: area with low cell density, High concentration
[21] = L: area with low cell density, Low concentration
[22] = L: area with low cell density, Medium concentration
[23] = Exp 19, 120000 S100T1 cells/well

Method: The cells should be grown in a top agar layer to avoid growth on the bottom surface. […] Both densely seeded and sparsely seeded areas were photographed.
Cells: The polyoma virus transformed offspring of BHK21/c13, S100T1, was grown on 75 cm^2 flasks on Eagles medium with 5% foetal calf serum. […] Foetal calf serum (0.7 ml) was added to each harvest. After low speed centrifugation the supernatant was discarded and the cells were dispersed in 1 ml FBS.
The concentration of ultra low gelling temperature agarose (Sigma) of the top agar layer with cells was also 0.8%. […] The addition of cells was performed at the same side of the wells in order to create similar cell density gradients. Finally the top layer agar was consolidated in the refrigerator.
After that it was incubated at 37 degrees in 5% CO2 atmosphere.
Agar cultures were prepared in Falcon 24 well tissue culture plate. Each well contained two agar layers of 0.3 ml.
Agar cultures were prepared in wells of Falcon 24 well tissue culture plate. Each contained two agar layers of 0.3 ml. […] The medium contained Eagles MEM and 10% foetal bovine serum (FBS).
The compounds were first solved in DMSO in 20 mM concentration and then diluted in medium. The top layer needed 60-90 minutes in the refrigerator for solidification before incubation in 37° C. with 5% CO2 atmosphere.
In this experiment the inhibitor was added to the bottom layer in order to get an easier way for making the cell density gradient. One side of the Falcon 24 well plate was elevated 12 degrees in the refrigerator for 60-90 minutes to solidify the bottom layer in an oblique position When then solidifying the cell containing top soft agar layer in horizontal position, the cell gradient constantly became good across the well. […] Another 90 minutes were spent in the refrigerator to consolidate the soft agar layer with cells in a horizontal position. Both layers contained 0.8% agarose, Eagles MEM and 10% FBS.
Tilting the plate 12 degrees when solidifying the bottom layer with the drug and casting the top layer with cells horizontally made a stable cell gradient.
The indicated compounds were added to soft agar cultures of the polyoma virus transformed cell line S100T1 of BHK21/c13 cells (Table 1). Agar cultures were prepared in wells of a Falcon 24 well tissue culture plate. The wells contained two agar layers of 0.3 ml. […] The bottom medium was identical, but without cells.
The compounds were first solved in DMSO in 20 mM concentration and then diluted in bottom medium. The agar layers needed 60-90 minutes in the refrigerator for consolidation before incubation at 37° C. in 5% CO2 atmosphere.

4-hydroxy-4-aldehyd-1,2-diphenyl-pyrazolidinedione [#10]
Clonal growth, H: high density area of cell gradient, High (high concentration): ((+)) | Clonal growth, L: low density area of cell gradient, High (high concentration): − | Clonal growth, H: high density area of cell gradient, Low (low concentration): ++ | Clonal growth, L: low density area of cell gradient, Low (low concentration): ++ | Clonal growth, H: high density area of cell gradient, Medium (medium concentration): ++ | Clonal growth, L: low density area of cell gradient, Medium (medium concentration): − | Concentration inhibiting clonal growth of sparsely seeded cells without affecting densely seeded areas (Exp 25, medium concentration, 180000 S100T1 cells/well): about 50 μM | Clonal growth [1]: ++ | Clonal growth [2]: ++ | Clonal growth [3]: − | Clonal growth [4]: ++ | Clonal growth [5]: − | Clonal growth [6]: ++ | Clonal growth [7]: ++ | Clonal growth [8]: − | Clonal growth [9]: ++ | Clonal growth [10]: − | Clonal inhibition by 4-OH-OPB analogues, summary of Exp 22-25 (listed as # 10): complete inhibition of growth in sparsely seeded areas

CCCCC1(O)C(=O)N(c2ccccc2)N(c2ccccc2)C1=O [#11, 4-butyl-4-hydoxy-1,2-diphenyl-3,5-pyrazolidnedione]
Clonal growth, H: high density area of cell gradient, High (high concentration): ++(+) | Clonal growth, L: low density area of cell gradient, High (high concentration): ++ | Clonal growth, H: high density area of cell gradient, Low (low concentration): ++ | Clonal growth, L: low density area of cell gradient, Low (low concentration): ++ | Clonal growth, H: high density area of cell gradient, Medium (medium concentration): ++ | Clonal growth, L: low density area of cell gradient, Medium (medium concentration): ++ | Effect on clonal growth (Exp 25, 48 hours incubation): did not show any growth inhibition; also recorded: high concentration might stimulate growth in densely seeded areas | Clonal growth [11]: ++(+) | Clonal growth [1]: ++ | Clonal growth [2]: ++ | Clonal growth [3]: ++ | Clonal growth [4]: ++ | Clonal growth [5]: ++ | Clonal growth (Summary Table 3 of analogue tests (experiments 22-25), H (high cell density), High concentration): ++(+) | Clonal growth [6]: ++ | Clonal growth [7]: ++ | Clonal growth [8]: ++ | Clonal growth [9]: ++ | Clonal growth [10]: ++ | Clonal inhibition by 4-OH-OPB analogues, summary of Exp 22-25: possible stimulation at high concentration

Cc1c2oc3c(C)ccc(C(=O)N[C@@H]4C(=O)N[C@H](C(C)C)C(=O)N5CCC[C@H]5C(=O)N(C)CC(=O)N(C)[C@@H](C(C)C)C(=O)O[C@@H]4C)c3nc-2c(C(=O)N[C@@H]2C(=O)N[C@H](C(C)C)C(=O)N3CCC[C@H]3C(=O)N(C)CC(=O)N(C)[C@@H](C(C)C)C(=O)O[C@@H]2C)c(N)c1=O [Actino-mycin D, Actinomycin D, reference compound] (I: T[dV]P[Sar][NMeV] / II: T[dV]P[Sar][NMeV]; ester I:1-I:C, II:1-II:C; linker I:N-II:N via Actinocin(9to1))
Effect on clonal growth and toxicity (Exp 21): good, but probably no complete inhibition of clonal growth at low toxicity; also recorded: no absolute clonal inhibition of sparsely seeded cells; also recorded: There was signs of good, but not complete | Clonal growth [12]: ++ | Clonal growth [13]: + | Clonal growth [14]: + | Clonal growth [15]: ++ | Clonal growth [16]: (+) | Clonal growth, H high density area of cell gradient, High (high concentration): + | Clonal growth, L low density area of cell gradient, High (high concentration): ((+)) | Clonal growth, H high density area of cell gradient, Low (low concentration): ++ | Clonal growth, L low density area of cell gradient, Low (low concentration): + | Clonal growth, H high density area of cell gradient, Medium (medium concentration): ++ | Clonal growth, L low density area of cell gradient, Medium (medium concentration): (+) | Effect on cell cloning in soft agar: Good, but not complete inhibition

CN(C)c1nc(N(C)C)nc(N(C)C)n1 [Altretamine, reference compound]
Effect on clonal growth (Exp 26): No effect on cell growth was observed; also recorded: carcinoma in mice. Altretamine had no effect | Resulting clonal growth of treated cultures [17]: ++ | Resulting clonal growth of treated cultures [18]: ++ | Resulting clonal growth of treated cultures [19]: ++ | Resulting clonal growth of treated cultures [20]: ++ | Resulting clonal growth of treated cultures [21]: ++ | Resulting clonal growth of treated cultures [22]: ++ | Clonal growth, H high density area of cell gradient, High (high concentration): ++ | Clonal growth, L low density area of cell gradient, High (high concentration): ++ | Clonal growth, H high density area of cell gradient, Low (low concentration): ++ | Clonal growth, L low density area of cell gradient, Low (low concentration): ++ | Clonal growth, H high density area of cell gradient, Medium (medium concentration): ++ | Clonal growth, L low density area of cell gradient, Medium (medium concentration): ++ | Effect on cell cloning in soft agar: No effect

Cn1cnc([N+](=O)[O-])c1Sc1ncnc2nc[nH]c12 [Azathioprin, reference compound]
Effect on clonal growth (Exp 25, 48 hours incubation): no clonal inhibition or stimulation | Clonal growth [11]: ++ | Clonal growth [1]: ++ | Clonal growth [2]: ++ | Clonal growth [3]: ++ | Clonal growth [4]: ++ | Clonal growth [5]: ++ | Clonal growth, H high density area of cell gradient, High (high concentration): ++ | Clonal growth, L low density area of cell gradient, High (high concentration): ++ | Clonal growth, H high density area of cell gradient, Low (low concentration): ++ | Clonal growth, L low density area of cell gradient, Low (low concentration): ++ | Clonal growth, H high density area of cell gradient, Medium (medium concentration): ++ | Clonal growth, L low density area of cell gradient, Medium (medium concentration): ++ | Effect on cell cloning in soft agar: No effect

c1ccc2c(c1)cc1ccc3cccc4ccc2c1c34 [Benzo(a)pyrene, reference compound]
Effect on clonal growth, high dose (Exp 26, 172800 S100T1 cells/well): increased clonability | Resulting clonal growth of treated cultures [17]: ++ | Resulting clonal growth of treated cultures [18]: ++ | Resulting clonal growth of treated cultures [19]: ++ | Resulting clonal growth of treated cultures [20]: +++ | Resulting clonal growth of treated cultures [21]: ++ | Resulting clonal growth of treated cultures [22]: ++ | Clonal growth, H high density area of cell gradient, High (high concentration): ++ | Clonal growth, L low density area of cell gradient, High (high concentration): +++ | Clonal growth, H high density area of cell gradient, Low (low concentration): ++ | Clonal growth, L low density area of cell gradient, Low (low concentration): ++ | Clonal growth, H high density area of cell gradient, Medium (medium concentration): ++ | Clonal growth, L low density area of cell gradient, Medium (medium concentration): ++ | Effect on cell cloning in soft agar: Increased clonal growth at low density

COc1cc2c(c(OC)c1OC)-c1ccc(OC)c(=O)cc1[C@@H](NC(C)=O)CC2 [Colchicin]
Control of metastatic cells leaving tumour (ability of cells to leave a tumour, grow and infiltrate locally or grow in sparsely seeded areas, concluded from Exp 17): probably not | Control of settlement of metastatic cells (single cells or very few cells spread to distant sites, concluded from Exp 17): partly | Toxicity for body or dense cell populations (supposed main advantages or disadvantages if used in cancer treatment, concluded from Exp 17): none or small | Tolerating long duration of treatment (supposed, if used in cancer treatment): yes

O=P1(N(CCCl)CCCl)NCCCO1 (centres unmarked) [Cycloph. amide]
Clonal growth after 48 hours incubation (Exp 19, high concentration, H: high cell density part of the gradient): ++ | Clonal growth after 48 hours incubation (Exp 19, low concentration (exact conc. only in figure), H: high cell density part of the gradient): ++(+) | Clonal growth after 48 hours incubation (Exp 19, medium concentration, H: high cell density part of the gradient): ++(+)

O=P1(N(CCCl)CCCl)NCCCO1 (centres unmarked) [Cyclophosphamide, reference compound]
Effect on growth in densely and sparsely seeded areas [23]: no inhibition of growth in any of these areas; also recorded: No inhibition of clonal cell growth was | Effect on growth in densely seeded areas [23]: stimulation of clonal growth probably was significant | Effect on growth in densely and sparsely seeded areas (Exp 19, 120000 S100T1 cells/well, listed as cyclophosphamide): obtained, but cyclophosphamide stimulated | Clonal growth after 48 hours incubation (Exp 19, high concentration, L: low cell density part of the gradient): ++ | Clonal growth after 48 hours incubation (Exp 19, low concentration, L: low cell density part of the gradient): ++ | Clonal growth after 48 hours incubation (Exp 19, medium concentration, L: low cell density part of the gradient): ++ | Clonal growth, H high density area of cell gradient, High (high concentration): ++ | Clonal growth, L low density area of cell gradient, High (high concentration): ++ | Clonal growth, H high density area of cell gradient, Low (low concentration): ++(+) | Clonal growth, L low density area of cell gradient, Low (low concentration): ++ | Clonal growth, H high density area of cell gradient, Medium (medium concentration): ++(+) | Clonal growth, L low density area of cell gradient, Medium (medium concentration): ++ | Effect on cell cloning in soft agar: When unactivated growth increased in

Nc1ccn([C@@H]2O[C@H](CO)[C@@H](O)[C@@H]2O)c(=O)n1 [Cytarabin, reference compound]
Effect on clonal growth and toxicity (Exp 21): significant toxic effect at dosage that showed significant inhibition of clonal growth; also recorded: incomplete inhibition and signs of toxicity | Effect on clonal growth and toxicity (Exp 21, listed as Cytarabine): incomplete inhibition of clonal growth and significant toxicity | Clonal growth [12]: ++ | Clonal growth [13]: (+) | Clonal growth (Exp 21, High concentration, L: area with low cell density): (+) | Clonal growth [14]: + | Clonal growth [15]: ++ | Clonal growth [16]: + | Clonal growth, H high density area of cell gradient, High (high concentration): (+) | Clonal growth, L low density area of cell gradient, High (high concentration): (+) | Clonal growth, H high density area of cell gradient, Low (low concentration): ++ | Clonal growth, L low density area of cell gradient, Low (low concentration): + | Clonal growth, H high density area of cell gradient, Medium (medium concentration): ++ | Clonal growth, L low density area of cell gradient, Medium (medium concentration): + | Effect on cell cloning in soft agar: Incomplete inhibition of clonal growth
